Source: ChEMBL document CHEMBL2413048, “3,4-Dihydroxy- and 3,4-methylenedioxy- phenanthrene-type alkaloids with high selectivity for D2 dopamine receptor” (Bioorg Med Chem Lett, 2013)
Calls of active or inactive are those of the source. The calls are words filed in the database; no cut-off is given here.

Legend:
[1] = molecular target: D(2) dopamine receptor (Rattus norvegicus, UniProt P61169); assay: (§1) Displacement of [3H]-raclopride from D2 receptor of Wistar rat striatal membranes after 1 hr by liquid scintillation counting; format: cell membranes, Membrane
[2] = molecular target: D(1A) dopamine receptor (Rattus norvegicus, UniProt P18901); assay: Displacement of [3H]-SCH23390 from D1 receptor of Wistar rat striatal membranes after 1 hr by liquid scintillation counting; format: cell membranes, Membrane
[3] = organism: Rattus norvegicus; assay: Selectivity ratio of Ki for D1 receptor of Wistar rat striatal membranes to Ki for D2 receptor of Wistar rat striatal membranes; format: cell membranes; conditions: Membrane
[4] = molecular target: D(2) dopamine receptor (Rattus norvegicus) (UniProt P61169); assay: as §1; format: cell membranes; conditions: Membrane
Sequence of D(2) dopamine receptor (Rattus norvegicus) (P61169 whole entry): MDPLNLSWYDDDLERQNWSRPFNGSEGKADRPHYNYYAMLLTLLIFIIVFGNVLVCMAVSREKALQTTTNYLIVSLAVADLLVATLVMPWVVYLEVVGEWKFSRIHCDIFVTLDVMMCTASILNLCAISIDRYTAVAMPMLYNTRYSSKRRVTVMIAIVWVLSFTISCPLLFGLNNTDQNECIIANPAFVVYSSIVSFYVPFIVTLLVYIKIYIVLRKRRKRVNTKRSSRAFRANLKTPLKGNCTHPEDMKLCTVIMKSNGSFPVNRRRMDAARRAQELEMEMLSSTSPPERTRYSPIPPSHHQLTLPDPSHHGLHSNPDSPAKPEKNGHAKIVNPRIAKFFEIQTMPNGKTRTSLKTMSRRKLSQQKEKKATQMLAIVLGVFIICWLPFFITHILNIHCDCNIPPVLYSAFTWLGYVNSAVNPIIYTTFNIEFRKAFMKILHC

Sequence of D(2) dopamine receptor (P61169 whole entry): as above
Sequence of D(1A) dopamine receptor (P18901 whole entry): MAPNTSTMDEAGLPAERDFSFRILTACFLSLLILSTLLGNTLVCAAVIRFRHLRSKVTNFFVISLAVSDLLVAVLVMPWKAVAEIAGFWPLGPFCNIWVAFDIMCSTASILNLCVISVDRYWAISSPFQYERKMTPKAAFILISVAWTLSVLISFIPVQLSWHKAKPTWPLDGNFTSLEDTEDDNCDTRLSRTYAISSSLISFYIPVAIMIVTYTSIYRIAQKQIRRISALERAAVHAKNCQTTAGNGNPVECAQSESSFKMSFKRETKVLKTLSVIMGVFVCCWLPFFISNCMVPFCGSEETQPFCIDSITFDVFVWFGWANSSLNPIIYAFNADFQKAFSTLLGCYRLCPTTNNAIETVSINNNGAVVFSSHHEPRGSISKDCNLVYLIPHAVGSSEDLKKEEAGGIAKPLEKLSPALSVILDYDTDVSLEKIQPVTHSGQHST

Row | Activity [4] | Structure (SMILES) | Ki ([1]; read-out: Ki) | Ki ([1]; read-out: pKi (converted)) | Ki ([2]; read-out: Ki) | Ki ([2]; read-out: pKi (converted)) | Ratio Ki [3]
1 | – | COc1cc(CCN(C)C)c2ccc3ccccc3c2c1OC | 323 nM | 321 nM | 2940 nM | 2920 nM | 9.1
2 | – | CN(C)CCc1cc2c(c3c1ccc1ccccc13)OCO2 | 66 nM | 64.7 nM | 6350 nM | 4140 nM | 96
3 | – | CN1CCc2cc3c(c4c2C1Cc1ccccc1-4)OCO3 (racemic) [ROEMERINE] | 84 nM | – | 377 nM | 324 nM | 4.4
4 | – | CN1CCc2cc(O)c(O)c3c2C1Cc1ccccc1-3 (configuration not stated) | 45 nM | 38.6 nM | 401 nM | 397 nM | 8.9
5 | inactive | C[N+]1(C)CCc2cc3c(c4c2C1Cc1ccccc1-4)OCO3 (racemic) | – | – | – | – | –
6 | inactive | COc1cc(CC[N+](C)(C)C)c2ccc3ccccc3c2c1OC | – | – | – | – | –
7 | – | COc1cc2c3c(c1OC)-c1ccccc1CC3N(C)CC2 (racemic) [(+/-)-NUCIFERINE] | 209 nM | 173 nM | 630 nM | 587 nM | –
8 | inactive | C[N+](C)(C)CCc1cc2c(c3c1ccc1ccccc13)OCO2 | – | – | – | – | –
9 | – | CN(C)CCc1cc(O)c(O)c2c1ccc1ccccc12 | 49 nM | 38.5 nM | 7700 nM | 6190 nM | 157

Row | Structure (SMILES) | Activity [4] | Ki ([1]; read-out: Ki) | Ki ([1]; read-out: pKi (converted)) | Ki ([2]; read-out: Ki) | Ki ([2]; read-out: pKi (converted)) | Ratio Ki [3]
10 | COc1cc2c3c(c1OC)-c1ccccc1CC3[N+](C)(C)CC2 (configuration not stated) | inactive | – | – | – | – | –
